Data from patent publication US11806359B2 (priority 2020, dated 2023).
In brackets after ≈: the same amount, converted by molar mass.

What was measured:
Ebolavirus (EBOV/Kik) = assay type: cell-based; conditions: based on the oleandrin content; final concentration of compositions 20 microg/mL
[1] = In vitro cellular assay for release of lactate dehydrogenase; assay type: cell-based
Experimental: Proof of the safety of the oleandrin-containing composition was further provided by in vitro cellular assay for determining the release of lactate dehydrogenase after exposure of said cells to solutions containing different concentrations of oleandrin. It was determined that up to concentrations of 1 microg/mL, there was no additional toxicity over control vehicle.

SARS-CoV-2 [2] = experiment: Direct antiviral activity against SARS-CoV-2, percent infected cells by immunostaining (Example 29); assay type: cell-based
Experimental: The results are depicted in FIGS. 24A and 24B. […] Potential methods of action include inhibition of viral replication, assembly, and/or egress.
Growth media was removed from confluent monolayers of approximately 10^6 Vero CCL81 cells in 6-well plates. Oleandrin was serially diluted in culture media and added to […]. The growth media was replaced with 200 μl of maintenance media containing either 1.0 μg/ml, 0.5 μg/ml, 100 ng/ml, 50 ng/ml, 10 ng/ml, or 5 ng/ml oleandrin, or matched DMSO-only controls. The plates were incubated at 37° C. for about 30 minutes prior to addition of virus.
SARS-CoV-2 virus was added to Oleandrin treated cells and untreated cells at a MOI (multiplicity of infection) of 0.4 (entry assay) or 0.02 (replication assay). Oleandrin remained in the wells during a 1 hr incubation at 37° C.
After 1 hr absorption, inoculation media was removed and washed 1 time with PBS (standard phosphate buffer saline).
Media alone (no oleandrin) was added back to oleandrin-treated wells designated as “Pretreatment” on data slides. Media with indicated concentrations of oleandrin was added back to wells designated as “Duration” on data slides.
Plates were fixed at either 24 (entry assay) or 48 (replication assay) hours post-infection and immunostained with virus-specific antibody and fluorescently labeled secondary antibody.
Cells were imaged using an Operetta and data was analyzed using custom algorithms in Harmonia software to determine the percent of infected cells in each well.

HTLV-1 = experiment: Infectivity of HTLV-1 particles from treated SLB1 cells on primary huPBMCs, p19Gag ELISA; assay type: cell-based, human T-cell leukemia virus type-1; conditions: even the lowest concentration (10 μg/ml); relative to vehicle control
Marburgvirus (MARV/Ci67) = assay type: cell-based; conditions: based on the oleandrin content; final concentration of compositions 20 microg/mL
SARS-CoV-2 [3] = experiment: microbe, parasite or virus in culture; assay type: cell-based
SARS-CoV-2 [4] = experiment: SARS-CoV-2 genome equivalents in supernatant by qRT-PCR (Example 39); assay type: cell-based; conditions: 24 hours-post infection, four highest doses
Source text: The Vero 81 cells described above were subjected to genome analysis determine whether the inhibition of SARS-CoV-2 was at the level of total or infectious particle production. RNA was extracted from the cell culture supernatants of the prophylactic study, and genomic equivalents were quantified via qRT-PCR (Example 39). The prophylactic effect of oleandrin, initially observed via infectious assay, was confirmed at the level of genome equivalents. […]
To quantify genome copies for the samples, 200 μl of sample was extracted with a 5:1 volume ratio of TRIzol LS (Ambion, Carlsbad, Calif.), utilizing standard manufacturers protocols and resuspending in 11 μl water. Extracted RNA were tested for SARS-CoV-2 by qRT-PCR following a previously published assay (26). Briefly, the N gene was amplified using the following primers and probe: forward primer [5′-[…]-3′] (SEQ ID NO. 1); reverse primer [5′-[…]-3′] (SEQ ID NO. 2); and probe [5′-FAM-[…]-TAMRA-3′; (SEQ ID NO. 3)]. […]

CO[C@H]1C[C@H](O[C@H]2CC[C@@]3(C)[C@H](CC[C@@H]4[C@@H]3CC[C@]3(C)[C@@H](C5=CC(=O)OC5)[C@@H](OC(C)=O)C[C@]43O)C2)O[C@@H](C)[C@@H]1O [oleandrin]
efficacy against Ebolavirus (Ebolavirus (EBOV/Kik)): efficacious | concentration up to which no additional toxicity over control vehicle [1]: ≤ 1000 ng/mL | antiviral activity (SARS-CoV-2 [2]; 48-h, oleandrin only during the absorption phase (Pre-treatment data)): minimal antiviral activity | viral infection (SARS-CoV-2 [2]; 48-h, treated for the duration of the assay): significantly limited viral infection | virus entry and/or viral replication (SARS-CoV-2 [2]; 24 h, treated for the duration of the assay): significantly limited virus entry and/or viral replication | infectivity of newly-synthesized p19Gag-containing virus particles (HTLV-1): inhibited the infectivity | efficacy against Marburgvirus (Marburgvirus (MARV/Ci67)): efficacious | concentrations with substantial antiviral activity (SARS-CoV-2 [3]): above 0.01 microg/mL | effect on titer (SARS-CoV-2 [3]): significant reduction in titer | effect on titer compared to DMSO control (SARS-CoV-2 [3]): no significant effect | viral titer (SARS-CoV-2 [3]): substantial reduction in viral titer | viral titer at the two higher doses (SARS-CoV-2 [3]): essentially to or below the limit of detection | EC50 (SARS-CoV-2 [3]; Severe acute respiratory syndrome coronavirus 2, 24 h): 12 ng/mL (≈ 0.0208 µM) | EC50 (SARS-CoV-2 [3]; Severe acute respiratory syndrome coronavirus 2, 48 h): 7.07 ng/mL (≈ 0.0123 µM) | SARS-CoV-2 genomes in the supernatant (SARS-CoV-2 [4]): significantly decreased
